Laboratory results: article PMC3072374, “Evolution of Vertebrate Transient Receptor Potential Vanilloid 3 Channels: Opposite Temperature Sensitivity between Mammals and Western Clawed Frogs” (PLoS Genetics, 2011)

Legend:
mouse TRPV3 = target: T1, mouse TRPV3 (Mus musculus, UniProt Q8K424); test: two-electrode voltage clamp in Xenopus laevis oocytes; type: cell-based; settings: agonist
T1 construct: full-length channel from pcDNA3 subcloned into pOX+; cRNA injected into Xenopus laevis oocytes; homotetramer (known biology)
T1 sequence (Q8K424 1-791): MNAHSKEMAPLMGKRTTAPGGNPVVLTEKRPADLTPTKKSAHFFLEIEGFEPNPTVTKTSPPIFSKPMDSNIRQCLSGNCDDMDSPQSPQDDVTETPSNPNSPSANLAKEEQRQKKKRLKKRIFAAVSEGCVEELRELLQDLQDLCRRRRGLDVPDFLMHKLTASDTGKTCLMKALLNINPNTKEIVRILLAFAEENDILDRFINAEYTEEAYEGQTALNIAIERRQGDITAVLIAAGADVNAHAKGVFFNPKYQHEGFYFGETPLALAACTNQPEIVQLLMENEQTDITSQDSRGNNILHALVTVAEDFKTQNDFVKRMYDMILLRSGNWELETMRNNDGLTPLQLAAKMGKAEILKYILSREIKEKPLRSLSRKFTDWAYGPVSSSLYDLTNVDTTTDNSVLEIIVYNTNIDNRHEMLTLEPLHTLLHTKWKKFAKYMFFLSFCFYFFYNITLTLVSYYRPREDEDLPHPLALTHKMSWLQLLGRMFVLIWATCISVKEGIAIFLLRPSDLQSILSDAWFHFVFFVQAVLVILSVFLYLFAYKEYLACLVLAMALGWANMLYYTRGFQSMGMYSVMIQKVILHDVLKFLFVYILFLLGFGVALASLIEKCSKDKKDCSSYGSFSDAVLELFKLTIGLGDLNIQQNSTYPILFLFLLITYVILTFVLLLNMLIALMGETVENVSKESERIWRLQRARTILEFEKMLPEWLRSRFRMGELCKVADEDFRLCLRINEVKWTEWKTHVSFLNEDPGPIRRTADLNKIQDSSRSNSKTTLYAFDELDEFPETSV

[1] = target: T2, western clawed frog TRPV3 (Xenopus tropicalis, UniProt A0A7D9NMJ5); test: two-electrode voltage clamp in Xenopus laevis oocytes, dose-response; type: cell-based
T2 construct: full-length native channel, 773 residues, cDNA cloned from toe RNA into pGEMHE; cRNA injected into Xenopus laevis oocytes; homotetramer (known biology)
T2 sequence (A0A7D9NMJ5 1-773): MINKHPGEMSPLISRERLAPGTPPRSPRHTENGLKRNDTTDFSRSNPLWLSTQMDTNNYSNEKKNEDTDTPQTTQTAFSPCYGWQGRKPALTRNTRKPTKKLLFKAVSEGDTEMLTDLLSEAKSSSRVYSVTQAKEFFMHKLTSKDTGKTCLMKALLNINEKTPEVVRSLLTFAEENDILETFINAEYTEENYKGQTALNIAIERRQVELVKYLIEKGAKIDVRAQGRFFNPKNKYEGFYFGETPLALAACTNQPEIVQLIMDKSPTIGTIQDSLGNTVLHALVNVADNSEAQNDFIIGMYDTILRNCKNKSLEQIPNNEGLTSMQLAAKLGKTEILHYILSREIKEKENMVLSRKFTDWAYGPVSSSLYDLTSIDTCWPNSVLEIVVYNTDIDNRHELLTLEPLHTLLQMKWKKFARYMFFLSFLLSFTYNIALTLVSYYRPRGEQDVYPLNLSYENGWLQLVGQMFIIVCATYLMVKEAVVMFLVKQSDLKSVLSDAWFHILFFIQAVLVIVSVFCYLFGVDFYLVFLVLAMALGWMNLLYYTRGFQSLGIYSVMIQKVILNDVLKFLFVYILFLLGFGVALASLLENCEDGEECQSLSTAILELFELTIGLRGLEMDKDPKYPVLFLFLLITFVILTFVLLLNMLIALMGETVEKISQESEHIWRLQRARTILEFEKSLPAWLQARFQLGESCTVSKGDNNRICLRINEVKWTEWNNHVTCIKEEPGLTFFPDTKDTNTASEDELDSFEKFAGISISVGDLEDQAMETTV

Compound: CC12CCC(CC1)C(C)(C)O2 [eucalyptol]
- activation (mouse TRPV3; 10 mM eucalyptol): well known activators of mammalian TRPV3 (Figure 5F and 5G, Right)

Compound: NCCOB(c1ccccc1)c1ccccc1 [2-APB]
- EC50 [1]: 540 ± 240 µM

Compound: CC12CCC(CC1=O)C2(C)C (stereo not drawn) [camphor]
- activation (mouse TRPV3; 8 mM camphor): well known activators of mammalian TRPV3 (Figure 5F and 5G, Right)
